In patent publication US8362071B2, “Antiadhesion agents” (The Ohio State University Research Foundation, priority 2009, dated 2013):
“Also recorded” adds a separate entry of the source. Like-named read-outs stand apart in the source and are kept apart here.

What was measured:
4T1 cells [1] = experiment: Transwell (Boyden chamber) migration assay, serum-induced; format: cell-based, mouse; settings: FIG. 3A
Experimental: Migration Assay. 4T1 cells were trypsinized for 5 min, washed, and suspended in 0.2% FBS-supplemented RPMI 1640 medium. Five×10^4 cells in 0.5 ml of 0.2% FBS-supplemented RPMI medium containing individual test agents at the indicated concentrations were added to the upper chamber (i.e., insert) of each Transwell system (12 mm, polycarbonate, 12-μm pore, Millipore) in a 24-well plate, and incubated at 37° C. in a CO2 incubator for 30 min. The inserts were then switched to a new well containing 10% FBS-supplemented RPMI 1640 medium for 24 h. All cells in each well were fixed with 10% formalin followed by staining with 0.5% crystal violet. To quantify migrated cells, cells attached to the bottom side of the upper chamber and in the bottom of the well were wiped with a moistened cotton swab, which was then rinsed with 80 μl DDW. The cells were then dissolved by the addition of 320 μl 100% methanol. Enumeration of non-migrated cells was done by placing the chamber into 400 μl of 80% methanol, and incubating for 30 min in an orbital shaker. Absorbance at 570 nm was measured in an ELISA plate reader. Percentage of cell migration in each well was calculated using the following equation: % of migration=100×[(O.D. of migrated cells)−(O.D. of background)]/{[(O.D. of migrated cells)−(O.D. of background)]+[(O.D. of non-migrated cells)−(O.D. of background)]}. The migration activity in each treatment group is expressed as a percentage of that in the vehicle controls, which was considered to be 100%.

[2] = system: 4T1 metastatic breast cancer cells; experiment: Adhesion assay: 4T1 cell adhesion to a Matrigel-coated surface; format: cell-based, mouse; settings: for anti-adhesion potency (in words) / anti-adhesion activity relative to VES (FIG. 2A, in words): 4T1 cells, Matrigel-coated surface; for anti-adhesion activity relative to VES (FIG. 2A, in words): each at 5 μM
Experimental: Adhesion Assay. Ninety six-well plates were coated with 12% (v/v) Matrigel (BD Biosciences) at 37° C. for 1 hour, washed twice with washing buffer (0.1% BSA-containing RPMI medium) followed by blocking with 0.5% BSA-containing RPMI medium at 37° C. for 60 minutes. 4T1 cells were treated with individual derivatives at the indicated concentrations at 37° C. in a CO2 incubator for 60 minutes, and 2×10^4 cells in 100 μl were seeded in each well. Cells were allowed to adhere to the Matrigel-coated surface for 30 min at 37° C., and nonadherent cells were removed by gentle washing with the aforementioned washing buffer. Adherent cells were fixed with 10% formalin, stained with 0.5% crystal violet, and dissolved in 2% SDS. Absorbance at 570 nm was measured in an ELISA plate reader (Molecular device, Sunnyvale, Calif.).

[3] = system: focal adhesion kinase (FAK); experiment: FAK protein stability by Western blotting; format: cell-based, mouse; settings: each at 5 μM, 4T1 cells, 1 h
Experimental: (§1) VES derivatives target focal adhesion kinase (FAK) degradation. Considering the important role of FAK in regulating the formation of focal adhesions and actin stress fibers (McLean et al., Nat Rev Cancer 5, 505-15 (2005)), the effect of compound 2 on focal adhesion sites in 4T1 cells was assessed by immunostaining with anti-FAK antibodies, the results of which are shown in FIG. 4A. […] It is noteworthy that the disruption of actin stress fibers and focal adhesion by compound 2 is reminiscent of that induced by mannitol in neuroblastoma cells. Kim et al. J Biol Chem 277, 27393-400 (2002). As mannitol-induced cytoskeletal changes were preceded by the degradation of FAK, the effects of compound 2 relative to VES, TS-1, and compounds 1 and 3, each at 5 μM, on FAK protein stability in 4T1 cells was investigated by Western blotting.

4T1 cells [4] = experiment: F-actin immunostaining (actin cytoskeletal structure); format: cell-based, mouse; settings: for reduction in the fluorescent intensity of F-actin relative to the DMSO control: 4 h, 4T1 cells; for effect on actin cytoskeleton (stress fibers, lamellipodia; in words): 4 hours of exposure, FIG. 3B
Experimental: F-actin Immunostaining To assess the effect of test compounds on actin cytoskeletal structures, cells were seeded onto coverslips in six-well plates and incubated overnight, followed by exposure to individual agents at the indicated concentrations for 4 h in 2% FBS-containing RPMI 1640 medium. Cells were then fixed in 3.7% formaldehyde, permeabilized with PBS containing 0.1% Triton X-100 and 0.1% BSA for 1 h, and then incubated with Alexa Fluor 488 phallotoxin staining solution (Molecular Probes, Inc., Eugene, Oreg.) for 30 min. Nuclear counterstaining was achieved by use of 4,6-diamidino-2-phenylindole (DAPI)-containing mounting medium. Immunocytochemically labeled cells were visualized and images captured using a Zeiss microscope (LSM510) with Argon and HeNe lasers, appropriate filters (excitation wavelengths were 488 nm and 543 nm), and a 63×1.4 numerical aperture water immersion lens. Differences in fluorescence intensity were calculated from comparisons of the control sample with each of the treatment samples under the same threshold using MacBiophotonic ImageJ software (National Institutes of Health) and were expressed as percentages of the fluorescent intensity of the untreated control. Statistical significance was evaluated using Student's t-test and considered significant at P<0.05.

[5] = system: focal adhesion kinase (FAK); experiment: Focal adhesion sites by immunostaining with anti-FAK antibody; format: cell-based, mouse; settings: 2.5 μM, 1 h, 4T1 cells
Experimental: as §1

breast tumor = settings: animal models; Hahn et al. 2006; cited from earlier work
[6] = Mus musculus, 4T1, adhesion to Matrigel-coated surface, FIG. 2B, read-out: IC50, inhibiting 4T1 cell adhesion

IC50 [2, 6] [nM]	Compound	inhibition of serum-induced 4T1 cell migration (in words) (4T1 cells [1]; 5 μM)	anti-adhesion potency (in words) [2]	FAK degradation (in words) [3]	further results
–	Cc1c(C)c2c(c(C)c1OC(=O)CCC(=O)O)CCC(C)(CCCC(C)CCCC(C)C)O2 (stereo not shown) [TS-1]	little effect	substantially improved potency vis-à-vis VES	less evident or not appreciable	IC50 ([2]; adhesion to Matrigel-coated surface, FIG. 2B, read-out: IC50, inhibiting 4T1 cell adhesion): 2500 nM; anti-adhesion activity relative to VES (FIG. 2A, in words) [2]: significantly improved potencies
–	Cc1c(C)c2c(c(C)c1OC(=O)CCC(=O)O)CCC(C)(CCCC(C)C)O2 (stereo not shown) [TS-2]	–	substantially improved potency vis-à-vis VES	–	anti-adhesion activity relative to VES (FIG. 2A, in words) [2]: to a lesser extent
–	Cc1c(C)c2c(c(C)c1OC(=O)CCC(=O)O)CC[C@@](C)(CCC[C@H](C)CCC[C@H](C)CCCC(C)C)O2 [VES, α-tocopheryl succinate, reference compound]	–	modest inhibitory effect	less evident or not appreciable	inhibition of serum-induced 4T1 cell migration (in words) (4T1 cells [1]; 50 μM): little effect
1300	Cc1c(C)c2c(c(C)c1OC(=O)CCC(=O)O)CCC(C)(C=CCC(C)CCCC(C)C)O2 (stereo not shown) [compound 1, Succinic acid mono-[2-(4,8-dimethyl-non-1-enyl)-2,5,7,8-tetramethyl-chroman-6-yl]ester]	effective in inhibiting cell migration	multifold improvement in the anti-adhesion potency	–	–
600	Cc1c(C)c2c(c(C)c1OCC(=O)O)CCC(C)(C=CCC(C)CCCC(C)C)O2 (stereo not shown) [compound 2, [2-(4,8-Dimethyl-non-1-enyl)-2,5,7,8-tetramethyl-chroman-6-yloxy]-acetic acid]	effective in inhibiting cell migration	–	induced FAK degradation	IC50 ([2]; Mus musculus, 4T1, summary statement b23, read-out: IC50, blocking the adhesion of 4T1 metastatic breast cancer cells): 600 nM; reduction in the fluorescent intensity of F-actin relative to the DMSO control (4T1 cells [4]; 5 μM): 84%; effect on actin cytoskeleton (stress fibers, lamellipodia; in words) (4T1 cells [4]; 5 μM): rapid dissolution of stress fiber and impairment of lamellipodia formation; effect on focal adhesion sites (FAK punctate staining; in words) [5]: loss of focal adhesion sites; also recorded: no longer detectable
2000	Cc1c(C)c2c(c(C)c1OCC(=O)O)CCC(C)(CCCC(C)CCCC(C)C)O2 (stereo not shown) [compound 3, [2-(4,8-Dimethyl-nonyl)-2,5,7,8-tetramethyl-chroman-6-yloxy]-acetic acid]	effective in inhibiting cell migration	–	–	reduction in the fluorescent intensity of F-actin relative to the DMSO control (4T1 cells [4]; 10 μM): 70%; effect on actin cytoskeleton (stress fibers, lamellipodia; in words) (4T1 cells [4]; 10 μM): rapid dissolution of stress fiber and impairment of lamellipodia formation
–	Cc1c(C)c2c(c(C)c1OCC(=O)O)CCC(C)(CCCC(C)CCCC(C)CCCC(C)C)O2 (stereo not drawn) [α-tocopheryloxyacetic acid]	–	–	–	effect on breast tumor growth and lung metastasis (in words) (breast tumor): suppress breast tumor growth and to reduce lung metastasis
